Several values for one entry are separate records, joined by “and”; a condition that tells them apart may be missing. Equal entries are not always repeated. Where two headings read alike, the source gives them in different places.
How the values were obtained:
pSmad2 in IPF PCLS = assay: pSmad2 in precision cut lung slices (PCLS) from IPF patients; type: cell-based, human; settings: for IPF PCLS pSmad2/tSmad2 ratio: 1 µM compound, individual replicates n=1-3 (Fig 5f)
Method: Human fibrotic lung tissue was collected from human explants after transplantation. Tissue which the pathologist deemed suitable for research was inflated with 2–3% low boiling point agarose, with the agarose being allowed to set at 4 °C. PCLS were then cut at 400 μm on a vibrating microtome and cultured in DMEM media.

[1] = system: αvβ6-mediated TGFβ activation; assay: cells; type: cell-based, human; settings: for IC50: Homo sapiens; for activity: read-out: % inhibition of pSmad2 (NHBE cells)
pSmad2 in BAL cells = type: in vivo, mouse; settings: bleomycin mice
Method: (§1) For the measurement of concentration-dependent effects of αvβ6 and TGFβR1 inhibitors on TGFβ activation and signaling in NHBE cells, pSmad2 (normalized to GAPDH) was measured. pSmad2 and GAPDH was quantified using the Milliplex TGFβ Signaling Magnetic Bead Panel 6 plex (Merck Millipore, Billerica, MA, USA) luminex assay according to the manufacturer’s instructions. pSmad2 was determined using the same method for in vivo and ex vivo tissue and BAL samples, however data were normalized to tSmad2. tSmad2 was measured in the Pathscan Total Smad2 sandwich ELISA kit (Cell Signaling Technologies, London, UK), according to the manufacturer’s instructions with standard curves generated using recombinant GST-Smad2. βIG-H3 was determined in mouse and human BAL fluid samples using the mouse or human βIG-H3 DuoSet ELISA kit (R&D Systems, Abingdon, USA) respectively, according to the manufacturer’s instructions. PAI-1 was determined in mouse and human BAL fluid samples using the mouse or human PAI-1 Total antigen ELISA kit (Molecular Innovations, Novi, MI, USA) respectively, according to the manufacturer’s instructions.
(§2) Animal welfare followed the requirements of the Home Office Code of Practice for the Housing and Care of Animals used in Scientific Procedures. […] Play tunnels and bedding material were used to provide environmental enrichment. […]

pSmad2 in lung tissue = assay: Lung tissue pSmad2 in bleomycin-treated mice, single dose; type: in vivo, mouse
Method: as §1, §2

[2] = 30 mg/kg p.o., 2 h post dosing, in words
[3] = SB-525334 30 mg/kg p.o., 2 h, individual animals, 30 mg/kg

Row | Compound | IC50 (pSmad2 in IPF PCLS; Homo sapiens, IPF PCLS, 48 h, read-out: approximate IC50 for reduction of pSmad2) [nM] | IC50 ([1]; NHBE cells, read-out: IC50 for inhibition of αvβ6-mediated TGFβ activation (pSmad2)) [nM] | IC50 ([1]; NHBE cells, read-out: pIC50 for inhibition of αvβ6-mediated TGFβ activation (pSmad2) (converted)) [nM] | activity ([1]; Log [GSK3008348] M -9) | activity ([1]; Log [GSK3008348] M -10.8) [%] | activity [1] | IPF PCLS pSmad2/tSmad2 ratio (pSmad2 in IPF PCLS; IPF PCLS) | pSmad2 levels in IPF PCLS (pSmad2 in IPF PCLS; in words) | % pSmad2 in IPF PCLS (pSmad2 in IPF PCLS; SB-525334 1µM) | activity ([1]; Log [SB-525334] M -6) | activity ([1]; Log [SB-525334] M -9) | activity ([1]; Log [SB-525334] M -11.4) [%] | pIC50 for inhibition of αvβ6-mediated TGFβ activation (pSmad2) ([1]; NHBE cells) | pSmad2 levels in BAL cells (pSmad2 in BAL cells; [2]) | BAL cell pSmad2/tSmad2 ratio (pSmad2 in BAL cells; [3]) | pSmad2 levels in lung tissue (pSmad2 in lung tissue; [2]) | Lung tissue pSmad2/tSmad2 ratio (pSmad2 in lung tissue; [3])
1 | Cc1cc(C)n(-c2cccc([C@H](CC(=O)O)CN3CC[C@@H](CCc4ccc5c(n4)NCCC5)C3)c2)n1 [GSK3008348] | ~3 | 0.15 | 0.741 | 47% and 37% and 58% and 41% | 108 | 92% and 95% |  |  |  |  |  |  |  |  |  |  | 
2 | O=C(O)C[C@@H]1Cc2ccc(OCCCNc3ccccn3)cc2CN(CC(F)(F)F)C1=O [SB-267268] |  |  |  |  |  |  | 0.766 and 0.64 and 0.76 | Neither compound inhibited pSmad2 levels |  |  |  |  |  |  |  |  | 
3 | Cc1cccc(-c2[nH]c(C(C)(C)C)nc2-c2ccc3nccnc3c2)n1 [SB-525334] |  |  |  |  |  |  | 0.063 and 0.062 and 0.055 |  | 1% and 0% and -1% | 15% and 11% and 10% and 14% | 138% and 105% and 82% and 100% | 114 | 7.28 ± 0.13 | significantly reduce | 1.33 and 0.67 and 0.7 and 1.48 and 0.61 and 0.44 and 2.35 and 1.1 and 1 | significantly reduce | 0.09 and 0.07 and 0.1 and 0.13

— publication PMC7494911
